Experimental findings from US6355640B1, “Pyrazolopyridine adenosine antagonists” (Fujisawa Pharmaceutical Co., Ltd., priority 1993, dated 2002) are described below.

Molecules are shown by their SMILES.

`O=C(O)[C@@H]1CC[C@H](n2nc(-c3c(-c4ccccc4)nn4ccccc34)ccc2=O)C(=O)C1` (relative stereo) [Example 13, cis-3-[2-(4-carboxy-2-oxocyclohexyl)-3-oxo-2,3-dihydropyridazin-6-yl]-2-phenylpyrazolo[1,5-a]pyridine] registered a melting point of 186 to 188 °C.
For `N#C/C=C1/CCCCC1n1nc(-c2c(-c3ccccc3)nn3ccccc23)ccc1=O` (stereo not drawn) [Example 96 (Z)-isomer, (Z)-3-[2-{2-Cyanomethylenecyclohexyl}-3-oxo-2,3-dihydropyridazin-6-yl]-2-phenylpyrazolo[1,5-a]pyridine], the melting point was in the range of 70 to 72 °C.
With `CCCn1c(-n2nc(-c3c(-c4ccccc4)nn4ccccc34)ccc2=O)cc(=O)n(CC(=O)OC)c1=O` [Example 29, 3-[2-(2,4-Dioxo-3-methoxycarbonylmethyl-1-propyl-1,2,3,4-tetrahydropyrimidin-6-yl)-3-oxo-2,3-dihydropyridazin-6-yl]-2-phenylpyrazolo[1,5-a]pyridine] the figure was 191 to 195 °C; with `N#C/C=C1\CCCCC1n1nc(-c2c(-c3ccccc3)nn3ccccc23)ccc1=O` (stereo not drawn) [Example 96 (E)-isomer, (E)-3-[2-{2-Cyanomethylenecyclohexyl}-3-oxo-2,3-dihydropyridazin-6-yl]-2-phenylpyrazolo[1,5-a]pyridine], 174 to 175 °C.
With `N#CC1CCCCC1n1nc(-c2c(-c3ccccc3)nn3ccccc23)ccc1=O` (stereo not shown) [Example 108, 3-[2-(2-cyanocyclohexyl)-3-oxo-2,3-dihydropyridazin-6-yl]-2-phenylpyrazolo[1,5-a]pyridine] the figure was 214 °C.
With `O=C(O)CCCC1=C(n2nc(-c3c(-c4ccccc4)nn4ccccc34)ccc2=O)CCCC1` [Example 53, 3-[2-{2-(3-Carboxypropyl)-1-cyclohexenyl}-3-oxo-2,3-dihydropyridazin-6-yl]-2-phenylpyrazolo[1,5-a]pyridine] the figure was 145 to 147 °C; with `O=C1NCCC1n1nc(-c2c(-c3ccccc3)nn3ccccc23)ccc1=O` (stereo not shown) [Example 23, 3-[2-(2-Oxopyrrolidin-3-yl)-3-oxo-2,3-dihydropyridazin-6-yl]-2-phenylpyrazolo[1,5-a]pyridine], 133 to 134 °C (dec.); with `O=C(O)C=C1CCC(n2nc(-c3c(-c4ccccc4)nn4ccccc34)ccc2=O)CC1` (stereo not shown) [Example 51, 3-[2-(4-Carboxymethylenecyclohexyl)-3-oxo-2,3-dihydropyridazin-6-yl]-2-phenylpyrazolo[1,5-a]pyridine], 188 to 190 °C.
`O=C(O)C[C@@H]1CCCC[C@H]1n1nc(-c2c(-c3ccccc3)nn3ccccc23)ccc1=O` (relative stereo) [Example 39, trans-3-[2-(2-Carboxymethylcyclohexyl)-3-oxo-2,3-dihydropyridazin-6-yl]-2-phenylpyrazolo[1,5-a]pyridine]: the melting point fell in the range of 238 to 240 °C.
With `CCCn1c(-n2nc(-c3c(-c4ccccc4)nn4ccccc34)ccc2=O)cc(=O)n(CCC)c1=O` [Example 27, 3-[2-(1,3-Dipropyl-2,4-dioxo-1,2,3,4-tetrahydropyrimidin-6-yl)-3-oxo-2,3-dihydropyridazin-6-yl]-2-phenylpyrazolo[1,5-a]pyridine] the figure was 155.3 °C; with `COc1ccc(-n2nc(-c3c(-c4ccccc4)nn4ccccc34)ccc2=O)cc1` [Example 100, 3-[2-(4-Methoxyphenyl)-3-oxo-2,3-dihydropyridazin-6-yl]-2-phenylpyrazolo[1,5-a]pyridine], 158 °C; with `O=c1ccc(-c2c(-c3ccccc3)nn3ccccc23)nn1[C@@H]1CCCC[C@@H]1O` (relative stereo) [Example 4, cis-3-[2-(2-hydroxycyclohexyl)-3-oxo-2,3-dihydropyridazin-6-yl]-2-phenylpyrazolo[1,5-a]pyridine], 195 to 197 °C.
Consider `CCOC(=O)CN(C)C(=O)CC1=C(n2nc(-c3c(-c4ccccc4)nn4ccccc34)ccc2=O)CCCC1` [Example 68, 3-[2-{2-(N-ethoxycarbonylmethyl-N-methylcarbamoyl)methyl-1-cyclohexenyl}-3-oxo-2,3-dihydropyridazin-6-yl]-2-phenylpyrazolo[1,5-a]pyridine], for which the melting point was 56 to 60 °C.
With `CN1CCN(C(=O)CC2=C(n3nc(-c4c(-c5ccccc5)nn5ccccc45)ccc3=O)CCCC2)CC1.Cl` (hydrate or solvate) the figure was 188 to 191 °C; with `O=C(CC1=C(n2nc(-c3c(-c4ccccc4)nn4ccccc34)ccc2=O)CCCC1)N1CCOCC1` [Example 83, 3-[2-(2-Morpholinocarbonylmethyl-1-cyclohexenyl)-3-oxo-2,3-dihydropyridazin-6-yl]-2-phenylpyrazolo[1,5-a]-pyridine], 202 to 204 °C.
On to `CN(CC(=O)O)C(=O)CC1=C(n2nc(-c3c(-c4ccccc4)nn4ccccc34)ccc2=O)CCCC1` [Example 43, 3-[2-{2-(N-carboxymethyl-N-methylcarbamoyl)methyl-1-cyclohexenyl}-3-oxo-2,3-dihydropyridazin-6-yl]-2-phenylpyrazolo[1,5-a]pyridine], for which the melting point was 135 to 138 °C.
Then `O=C(O)CON=C1CCCCC1n1nc(-c2c(-c3ccccc3)nn3ccccc23)ccc1=O` (stereo not shown) [Example 57, 3-[2-(2-Carboxymethoxyiminocyclohexyl)-3-oxo-2,3-dihydropyridazin-6-yl]-2-phenylpyrazolo[1,5-a]pyridine], with 208 °C (dec.).
Molecule `O=C1CCCC(n2nc(-c3c(-c4ccccc4)nn4ccccc34)ccc2=O)C1` (stereo not shown) [Example 102, 3-[2-(3-oxocyclohexyl)-3-oxo-2,3-dihydropyridazin-6-yl]-2-phenylpyrazolo[1,5-a]pyridine] registered a melting point of 126 to 127 °C.
With `CN(C)C(=O)CC1=C(n2nc(-c3c(-c4ccccc4)nn4ccccc34)ccc2=O)CCCC1` [Example 71, 3-[2-{2-(N,N-Dimethylcarbamoyl)methyl-1-cyclohexenyl}-3-oxo-2,3-dihydropyridazin-6-yl]-2-phenylpyrazolo[1,5-a]pyridine] the figure was 80 to 81 °C; with `COC(=O)C[C@H]1CC[C@H](n2nc(-c3c(-c4ccccc4)nn4ccccc34)ccc2=O)C1` (relative stereo) [Example 32, trans-3-[2-(3-Methoxycarbonylmethylcyclopentyl)-3-oxo-2,3-dihydropyridazin-6-yl]-2-phenylpyrazolo[1,5-a]-pyridine], 105 to 107 °C.
With `CC(C)(C)OC(=O)CC1=CCCCC1n1nc(-c2c(-c3ccccc3)nn3ccccc23)ccc1=O` (stereo not shown) [Example 95(2), 3-[2-{2-(tert-Butoxycarbonylmethyl)-2-cyclohexen-1-yl}-3-oxo-2,3-dihydropyridazin-6-yl]-2-phenylpyrazolo-[1,5-a]pyridine] the figure was 145.5 to 147 °C; with `C[C@@]1(O)CCCC[C@H]1n1nc(-c2c(-c3ccccc3)nn3ccccc23)ccc1=O` (relative stereo) [Example 35, 3-[2-{(1R*,2R*)-2-hydroxy-2-methylcyclohexyl}-3-oxo-2,3-dihydropyridazin-6-yl]-2-phenylpyrazolo[1,5-a]-pyridine], 197 to 198 °C; with `COC(=O)[C@H]1CC[C@@H](n2nc(-c3c(-c4ccccc4)nn4ccccc34)ccc2=O)[C@H](O)C1` (relative stereo) [Example 8, 3-[2-{(1R*,2R*,4S*)-2-Hydroxy-4-methoxycarbonyl-cyclohexyl}-3-oxo-2,3-dihydropyridazin-6-yl]-2-phenylpyrazolo[1,5-a]pyridine], 169 to 172 °C.
With `COc1ccc2c(c1)CC[C@@H](O)[C@@H]2n1nc(-c2c(-c3ccccc3)nn3ccccc23)ccc1=O` (relative stereo) [Example 30, trans-3-[2-(6-Hydroxy-2-methoxy-5,6,7,8-tetrahydro-5-naphthyl)-3-oxo-2,3-dihydropyridazin-6-yl]-2-phenylpyrazolo[1,5-a]pyridine] the figure was 146 to 150 °C; with `O=c1ccc(-c2c(-c3ccccc3)nn3ccccc23)nn1[C@@H]1CCCC[C@H]1O` (relative stereo) [Example 5, trans-3-[2-(2-hydroxycyclohexyl)-3-oxo-2,3-dihydropyridazin-6-yl]-2-phenylpyrazolo[1,5-a]-pyridine], 229 to 230 °C; with `CCCn1c(=O)cc(-n2nc(-c3c(-c4ccccc4)nn4ccccc34)ccc2=O)n(CC(=O)OC)c1=O` [Example 28, 3-[2-(2,4-Dioxo-1-methoxycarbonylmethyl-3-propyl-1,2,3,4-tetrahydropyrimidin-6-yl)-3-oxo-2,3-dihydropyridazin-6-yl]-2-phenylpyrazolo[1,5-a]pyridine], 143 to 145 °C.
With `COC(=O)/C=C1\CCCCC1n1nc(-c2c(-c3ccccc3)nn3ccccc23)ccc1=O` (stereo not shown) [Example 31, (E)-3-[2-(2-methoxycarbonylmethylenecyclohexyl)-3-oxo-2,3-dihydropyridazin-6-yl]-2-phenylpyrazolo[1,5-a]pyridine], the melting point fell in the range of 156 to 157 °C.
As to `O=C1NCCCC1n1nc(-c2c(-c3ccccc3)nn3ccccc23)ccc1=O` (stereo not shown) [Example 26, 3-[2-(2-Oxopiperidin-3-yl)-3-oxo-2,3-dihydropyridazin-6-yl]-2-phenylpyrazolo[1,5-a]pyridine], the melting point is 140 to 145 °C (dec.).
With `O=C(O)C[C@H]1CCCC[C@H]1n1nc(-c2c(-c3ccccc3)nn3ccccc23)ccc1=O` (relative stereo) [Example 38, cis-3-[2-(2-carboxymethylcyclohexyl)-3-oxo-2,3-dihydropyridazin-6-yl]-2-phenylpyrazolo[1,5-a]pyridine] the figure was 252 to 253 °C; with `O=c1ccc(-c2c(-c3ccccc3)nn3ccccc23)nn1C1CCCCC1=NO` (stereo not shown) (hydrate or solvate) [Example 89, 3-[2-(2-Hydroxyiminocyclohexyl)-3-oxo-2,3-dihydropyridazin-6-yl]-2-phenylpyrazolo[1,5-a]pyridine], 238 to 240 °C; with `O=c1ccc(-c2c(-c3ccccc3)nn3ccccc23)nn1C1CCC2(CC1)OCCO2` [Example 21, 3-[2-(4,4-Ethylenedioxycyclohexyl)-3-oxo-2,3-dihydropyridazin-6-yl]-2-phenylpyrazolo[1,5-a]pyridine], 189 to 190 °C.
